Measured values as given in patent publication US11471459B2, “Compounds with enhanced anti-tumor effects” (FONDAZIONE PER L'ISTITUTO ONCOLOGICO DI RICERCA (IOR), priority 2018, dated 2022).
pIC50: −log10 of the molar value.

Legend:
Assay in all cases: Proliferation MTT assay, 72 h
Type in all cases: cell-based
AM-HLH = AM-HLH (HL), 72 h exposure
Experimental: (§1) Thirty-nine cell lines derived from activated B cell-like (ABC) (n=3) and germinal center B Cell (GCB) (n=12) diffuse large B cell lymphoma (DLBCL), mantle cell lymphoma (MCL) (n=9), chronic lymphocytic leukemia (CLL) (n=2), Hodgkin lymphoma (HL) (n=4), cutaneous T cell lymphoma (CTCL) (n=3), peripheral T cell lymphoma (PTCL) (n=1), anaplastic large T cell lymphoma (ALCL) (n=4), acute T cell leukemia (ATCL) (n=1) were cultured according to the recommended conditions. All media were supplemented with fetal bovine serum (10%), Penicillin-Streptomycin-Neomycin (˜5,000 units penicillin, 5 mg streptomycin and 10 mg neomycin/mL, Sigma) and L-glutamine (1%).
(§2) EG-011 was dissolved in dimethyl sulphoxide (DMSO) to obtain a stock concentration of 10 mM for in vitro experiments. EG-011 was dissolved in 25% hydroxypropyl beta cyclodextrin (HP-β-CD) in water and adjusted at pH 6.0 using NaOH (0.1 N) and HCl (0.1 N) for in vivo experiments. Application volume was 4.5 mL/kg (100 mg in 4.5 mL), and mice received 200 microliters (corresponding to 200 mg/kg) though intra peritoneal i.p. injection, once per day and five days per week.
(§3) Cells were seeded in 96-well plates (non-tissue culture treated) at a density of 10,000 cells for all cell lines. Each compound was dissolved in dimethyl sulphoxide (DMSO). For treatment of cells, compounds were serially diluted in the appropriate tissue culture medium, at a range of 20 mcM-78 nM following a 1:2 dilution factor and added to cells (in three replicates). Cells were incubated for 72 hours at 37° C., 5% CO2. DMSO alone was added to negative control (untreated) cells. Wells containing medium only were included on each plate and served as blanks for absorbance readings. MTT (Sigma-Aldrich Chemie GmbH, Buchs, Switzerland) was prepared as a 5 mg/ml stock in PBS and filter-sterilized. MTT solution (22 μL) was added to each well and tissue culture plates were incubated at 37° C. for 4 hours. Cells were then lysed with 25% SDS lysis buffer and absorbance was read at 570 nm using an AD340 plate reader (Beckman Coulter International SA, Switzerland). Absorbance values were expressed in percentage of proliferating cells in comparison with control cells (control corresponds to 100%).

FARAGE = FARAGE (GCB-DLBCL), 72 h exposure
Experimental: as §1, §2, §3

FEPD = FEPD (T Cell-PTCL), 72 h exposure
Experimental: as §1, §2, §3

GRANTA519 = details: Homo sapiens, Granta-519, GRANTA519 (MCL), 72 h exposure
Experimental: as §1, §2, §3

H9 = details: Homo sapiens, H9 (T Cell - CTCL), 72 h exposure
Experimental: as §1, §2, §3

HH = details: Homo sapiens, HH (T Cell - CTCL), 72 h exposure
Experimental: as §1, §2, §3

HUT-78 = details: Homo sapiens, HuT78, HUT-78 (T Cell - CTCL), 72 h exposure
Experimental: as §1, §2, §3

JEKO1 = details: Homo sapiens, JeKo-1, JEKO1 (MCL), 72 h exposure
Experimental: as §1, §2, §3

JURKAT = details: Homo sapiens, JURKAT (T Cell Leukemia), 72 h exposure
Experimental: as §1, §2, §3

KARPAS-299 = details: Homo sapiens, KARPAS-299 (T Cell - ALCL), 72 h exposure
Experimental: as §1, §2, §3

KI-JK = KI-JK (T Cell - ALCL), 72 h exposure
Experimental: as §1, §2, §3

KM-H2 = details: Homo sapiens, KM-H2 (HL), 72 h exposure
Experimental: as §1, §2, §3

Karpas-422 = details: Homo sapiens, Karpas-422 (GCB-DLBCL), 72 h exposure
Experimental: as §1, §2, §3

L-1236 = L-1236 (HL), 72 h exposure
Experimental: as §1, §2, §3

L-428 = details: Homo sapiens, L-428 (HL), 72 h exposure
Experimental: as §1, §2, §3

L-82 = L-82 (T Cell - ALCL), 72 h exposure
Experimental: as §1, §2, §3

MAC-1 = MAC-1 (T Cell - ALCL), 72 h exposure
Experimental: as §1, §2, §3

MAVER1 = details: Homo sapiens, MAVER1 (MCL), 72 h exposure
Experimental: as §1, §2, §3

MEC1 = details: Homo sapiens, MEC1 (CLL), 72 h exposure
Experimental: as §1, §2, §3

MINO = details: Homo sapiens, MINO (MCL), 72 h exposure
Experimental: as §1, §2, §3

OCI-LY-10 = details: Homo sapiens, OCI-Ly10, OCI-LY-10 (ABC-DLBCL), 72 h exposure
Experimental: as §1, §2, §3

OCI-LY-19 = details: Homo sapiens, OCI-LY19, OCI-LY-19 (GCB-DLBCL), 72 h exposure
Experimental: as §1, §2, §3

OCI-LY-1 = details: Homo sapiens, OCI-Ly1, OCI-LY-1 (GCB-DLBCL), 72 h exposure
Experimental: as §1, §2, §3

OCI-LY-3 = details: Homo sapiens, OCI-Ly3, OCI-LY-3 (ABC-DLBCL), 72 h exposure
Experimental: as §1, §2, §3

OCI-LY-7 = details: Homo sapiens, OCI-Ly7, OCI-LY-7 (GCB-DLBCL), 72 h exposure
Experimental: as §1, §2, §3

## C=CC(=O)N1CCCC(n2c(=O)c3ncccc3n(Cc3ccc(Oc4ccccc4)cc3)c2=O)C1 (stereo not shown) [EG-011, 1-[(4-phenoxyphenyl)methyl]-3-(1-prop-2-enoyl-3-piperidyl)pyrido[3,2-d]pyrimidine-2,4-dione]
AM-HLH
  pIC50: 4.74
FARAGE
  pIC50: 5.70
FEPD
  pIC50: 5.52
GRANTA519
  pIC50: 6.60
H9
  pIC50: 6.00
HH
  pIC50: 4.82
HUT-78
  pIC50: 5.82
JEKO1
  pIC50: 5.40
JURKAT
  pIC50: 4.82
KARPAS-299
  pIC50: 4.70
KI-JK
  pIC50: 4.70
KM-H2
  pIC50: 5.60
Karpas-422
  pIC50: 5.82
L-1236
  pIC50: 5.05
L-428
  pIC50: 4.70
L-82
  pIC50: 5.70
MAC-1
  pIC50: 6.82
MAVER1
  pIC50: 4.70
MEC1
  pIC50: 5.10
MINO
  pIC50: 7.00
OCI-LY-10
  pIC50: 5.30
OCI-LY-19
  pIC50: 6.82
OCI-LY-1
  pIC50: 6.60
OCI-LY-3
  pIC50: 5.00
OCI-LY-7
  pIC50: 5.30
